{
  "source": "ChEMBL document CHEMBL1201862",
  "about": "“PubChem BioAssay data set” (2004)",
  "key": {"[1]": {"biological_target": "Neurotensin receptor type 1 (Homo sapiens, UniProt P30989)", "sequence (P30989 whole entry)": "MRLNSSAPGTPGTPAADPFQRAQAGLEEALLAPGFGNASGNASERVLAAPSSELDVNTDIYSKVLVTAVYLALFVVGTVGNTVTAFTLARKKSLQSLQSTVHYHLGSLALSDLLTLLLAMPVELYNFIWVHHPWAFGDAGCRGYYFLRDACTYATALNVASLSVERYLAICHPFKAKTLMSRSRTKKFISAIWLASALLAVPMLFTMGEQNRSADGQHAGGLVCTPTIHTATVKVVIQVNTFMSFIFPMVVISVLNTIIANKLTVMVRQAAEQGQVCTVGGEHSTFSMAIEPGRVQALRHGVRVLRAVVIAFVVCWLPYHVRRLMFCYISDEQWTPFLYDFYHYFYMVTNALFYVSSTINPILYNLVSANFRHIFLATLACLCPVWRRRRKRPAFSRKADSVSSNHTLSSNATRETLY", "type": "functional"}, "[2]": {"experiment": "viability of PTEN-deleted HCT116 cells – cell-based, HCT116 PTEN knockout, dose response (AID 1047);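 further: HCT116 colon tumor cells with PTEN knocked out; cells exposed to compound for 60 hours before readout; potency for loss of cell viability measured by luminescence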", "type": "functional"}, "[3]": {"experiment": "Luminescence Cell-Based Dose Retest to Confirm Inhibitors of Cancer Stem Cells. [Related pubchem assays (depositor defined):AID2717, AID2721]", "type": "functional", "settings": "Homo sapiens"}, "[4]": {"experiment": "viability of HCT116 lacking mutant beta-catenin – cell-based, human colon tumor, dose response (AID 1045);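 further: HCT116 colon tumor cells with beta catenin knocked out; cells exposed to compound for 60 hours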", "type": "functional"}, "[5]": {"experiment": "microbe, parasite or virus in culture", "type": "functional", "settings": "Mycobacterium tuberculosis"}, "Perilipin-1/ABHD5": {"biological_target": "Perilipin-1/ABHD5 (Homo sapiens, UniProt O60240+Q8WTS1)", "sequence (Q8WTS1 whole entry, the tested form may be a part)": "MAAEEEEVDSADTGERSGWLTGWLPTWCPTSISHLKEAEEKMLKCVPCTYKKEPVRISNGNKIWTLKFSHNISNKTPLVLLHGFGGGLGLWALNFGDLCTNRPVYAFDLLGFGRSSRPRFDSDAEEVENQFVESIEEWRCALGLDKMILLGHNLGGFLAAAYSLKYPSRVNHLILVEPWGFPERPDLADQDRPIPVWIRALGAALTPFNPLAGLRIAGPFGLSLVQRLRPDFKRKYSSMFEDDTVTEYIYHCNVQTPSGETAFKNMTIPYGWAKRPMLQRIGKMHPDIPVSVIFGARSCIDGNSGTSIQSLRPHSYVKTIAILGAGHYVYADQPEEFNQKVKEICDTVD", "sequence (O60240 whole entry, the tested form may be a part)": "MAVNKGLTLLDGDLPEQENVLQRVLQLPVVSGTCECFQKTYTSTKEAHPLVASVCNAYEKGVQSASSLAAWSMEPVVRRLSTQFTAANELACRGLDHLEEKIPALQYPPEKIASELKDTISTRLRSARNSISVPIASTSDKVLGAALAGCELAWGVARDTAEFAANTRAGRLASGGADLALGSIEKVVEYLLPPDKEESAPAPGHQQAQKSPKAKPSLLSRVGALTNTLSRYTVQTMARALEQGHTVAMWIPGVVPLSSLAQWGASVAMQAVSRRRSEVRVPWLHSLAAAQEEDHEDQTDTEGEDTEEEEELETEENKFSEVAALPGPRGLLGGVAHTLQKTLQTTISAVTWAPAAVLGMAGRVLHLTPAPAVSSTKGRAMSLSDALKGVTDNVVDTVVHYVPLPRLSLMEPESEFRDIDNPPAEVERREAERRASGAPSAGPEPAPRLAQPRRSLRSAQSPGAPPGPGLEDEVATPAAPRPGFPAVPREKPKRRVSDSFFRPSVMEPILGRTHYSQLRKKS", "experiment": "Luminescence-based biochemical high throughput dose response assay for inhibitors of the interaction of the lipase co-activator protein, abhydrolase domain containing 5 (ABHD5) with perilipin-1 (PLIN1) (2K validation set). [Related pubchem assays (depositor defined):AID493027, AID493057]"}, "Hexokinase HKDC1": {"biological_target": "Hexokinase HKDC1 (Homo sapiens, UniProt Q2TB90)", "experiment": "inhibition of HKDC1 glucose phosphorylation – biochemical, W721R variant, dose response (AID 504729)", "type": "functional"}, "[6]": {"biological_target": "T1, Zinc finger protein mex-5 (Caenorhabditis elegans, UniProt Q9XUB2)", "T1 sequence (Q9XUB2 whole entry)": "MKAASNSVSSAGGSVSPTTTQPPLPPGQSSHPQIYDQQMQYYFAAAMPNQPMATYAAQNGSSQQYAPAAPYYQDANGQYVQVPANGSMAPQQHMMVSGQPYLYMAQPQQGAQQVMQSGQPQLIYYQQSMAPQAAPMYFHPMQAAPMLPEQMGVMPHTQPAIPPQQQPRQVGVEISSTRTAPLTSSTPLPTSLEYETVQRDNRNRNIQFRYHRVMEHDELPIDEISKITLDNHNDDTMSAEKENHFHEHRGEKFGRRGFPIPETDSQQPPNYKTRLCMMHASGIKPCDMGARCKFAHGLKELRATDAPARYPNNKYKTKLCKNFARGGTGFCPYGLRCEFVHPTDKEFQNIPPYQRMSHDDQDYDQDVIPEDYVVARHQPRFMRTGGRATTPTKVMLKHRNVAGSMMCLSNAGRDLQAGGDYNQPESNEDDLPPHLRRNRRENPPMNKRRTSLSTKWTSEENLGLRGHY", "experiment": "potency of MEX-5 RNA-binding blockers – biochemical, C. elegans, fluorescence polarization, dose response (AID 1960)"}, "[7]": {"biological_target": "T2, RNA-binding protein pos-1 (Caenorhabditis elegans, UniProt G5EF15)", "T2 sequence (G5EF15 whole entry)": "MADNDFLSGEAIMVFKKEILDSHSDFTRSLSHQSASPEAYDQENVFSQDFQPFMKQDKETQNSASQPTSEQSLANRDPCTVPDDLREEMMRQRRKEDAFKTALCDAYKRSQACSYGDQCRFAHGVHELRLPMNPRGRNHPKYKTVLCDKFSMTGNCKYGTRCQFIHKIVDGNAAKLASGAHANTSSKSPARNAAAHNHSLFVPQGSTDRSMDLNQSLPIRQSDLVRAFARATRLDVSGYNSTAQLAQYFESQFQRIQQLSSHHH", "experiment": "disruptors of C. elegans POS-1 RNA interaction – biochemical, fluorescence polarization, dose response (AID 1964);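 further: purified POS-1 fused to maltose binding protein made in E. coli; potency of compounds blocking POS-1 binding to fluorescent RNA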"}, "Beta-galactosidase": {"biological_target": "Beta-galactosidase (Escherichia coli, UniProt Q8VNN2)", "sequence (Q8VNN2 whole entry)": "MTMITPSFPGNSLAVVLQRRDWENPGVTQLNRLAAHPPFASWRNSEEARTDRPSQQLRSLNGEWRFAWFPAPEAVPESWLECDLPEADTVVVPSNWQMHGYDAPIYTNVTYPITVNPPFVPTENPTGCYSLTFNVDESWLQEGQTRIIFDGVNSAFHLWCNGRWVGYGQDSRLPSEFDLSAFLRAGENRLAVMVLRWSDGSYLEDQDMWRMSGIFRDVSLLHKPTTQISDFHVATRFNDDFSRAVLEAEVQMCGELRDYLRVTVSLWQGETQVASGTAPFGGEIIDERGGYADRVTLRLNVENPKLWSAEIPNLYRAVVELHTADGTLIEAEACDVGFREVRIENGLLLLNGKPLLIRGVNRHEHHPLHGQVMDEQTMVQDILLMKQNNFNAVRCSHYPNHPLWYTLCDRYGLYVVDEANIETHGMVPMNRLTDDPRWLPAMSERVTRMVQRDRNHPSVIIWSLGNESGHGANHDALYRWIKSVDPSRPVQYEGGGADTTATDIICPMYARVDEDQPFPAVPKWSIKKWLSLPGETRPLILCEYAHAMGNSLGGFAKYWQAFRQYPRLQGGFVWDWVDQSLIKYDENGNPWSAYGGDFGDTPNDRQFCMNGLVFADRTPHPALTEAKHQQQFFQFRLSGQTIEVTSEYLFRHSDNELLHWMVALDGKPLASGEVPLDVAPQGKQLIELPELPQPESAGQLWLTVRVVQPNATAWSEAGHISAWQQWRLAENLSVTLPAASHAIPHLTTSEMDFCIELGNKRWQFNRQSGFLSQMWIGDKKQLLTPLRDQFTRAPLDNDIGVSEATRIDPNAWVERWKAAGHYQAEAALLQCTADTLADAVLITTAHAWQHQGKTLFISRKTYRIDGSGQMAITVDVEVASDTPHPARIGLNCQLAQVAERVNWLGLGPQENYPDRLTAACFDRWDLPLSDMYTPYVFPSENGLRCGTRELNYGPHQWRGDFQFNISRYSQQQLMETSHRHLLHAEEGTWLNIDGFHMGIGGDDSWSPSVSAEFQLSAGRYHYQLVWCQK", "experiment": "detection-enzyme interference by beta-gal modulators – biochemical, E. coli enzyme, set 3, artefact control for CCR6 antagonist project, dose response (AID 504712)", "type": "functional"}, "[8]": {"biological_target": "1-acylglycerol-3-phosphate O-acyltransferase ABHD5/Perilipin-5 (Homo sapiens, UniProt Q00G26+Q8WTS1)", "sequence (Q00G26 whole entry, the tested form may be a part)": "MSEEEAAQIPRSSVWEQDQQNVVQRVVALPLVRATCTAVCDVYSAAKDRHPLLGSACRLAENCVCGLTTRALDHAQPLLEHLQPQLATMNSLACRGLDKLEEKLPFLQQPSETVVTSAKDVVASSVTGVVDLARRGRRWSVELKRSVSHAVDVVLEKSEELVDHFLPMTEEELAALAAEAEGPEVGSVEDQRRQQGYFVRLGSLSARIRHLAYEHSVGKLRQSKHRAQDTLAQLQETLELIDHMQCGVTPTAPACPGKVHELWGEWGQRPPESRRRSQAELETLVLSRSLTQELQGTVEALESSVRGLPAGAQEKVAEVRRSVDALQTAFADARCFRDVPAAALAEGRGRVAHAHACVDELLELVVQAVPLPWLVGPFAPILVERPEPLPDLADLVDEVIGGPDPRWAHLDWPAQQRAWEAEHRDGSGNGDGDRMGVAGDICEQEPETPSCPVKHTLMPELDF", "sequence (Q8WTS1 whole entry, the tested form may be a part)": "as the sequence (Q8WTS1 whole entry, the tested form may be a part) above", "experiment": "Luminescence-based biochemical high throughput dose response assay for inhibitors of the interaction of the lipase co-activator protein, abhydrolase domain containing 5 (ABHD5) with perilipin-5 (MLDP; PLIN5) (2K validation set). [Related pubchem assays (depositor defined):AID493035, AID493241]"}, "[9]": {"biological_target": "Induced myeloid leukemia cell differentiation protein Mcl-1 (Homo sapiens, UniProt Q07820)", "sequence (Q07820 whole entry)": "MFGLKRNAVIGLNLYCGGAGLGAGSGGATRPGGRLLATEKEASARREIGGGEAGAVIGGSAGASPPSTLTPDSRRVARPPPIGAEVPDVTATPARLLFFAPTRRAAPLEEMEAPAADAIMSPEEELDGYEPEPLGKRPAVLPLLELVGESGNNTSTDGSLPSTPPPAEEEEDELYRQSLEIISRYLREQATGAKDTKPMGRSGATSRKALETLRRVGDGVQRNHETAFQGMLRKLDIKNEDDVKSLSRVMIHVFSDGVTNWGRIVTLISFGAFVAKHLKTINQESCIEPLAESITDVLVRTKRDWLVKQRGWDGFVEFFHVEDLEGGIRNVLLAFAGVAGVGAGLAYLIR", "type": "functional"}, "[10]": {"biological_target": "DNA dC->dU-editing enzyme APOBEC-3A (Homo sapiens, UniProt P31941)", "sequence (P31941 whole entry)": "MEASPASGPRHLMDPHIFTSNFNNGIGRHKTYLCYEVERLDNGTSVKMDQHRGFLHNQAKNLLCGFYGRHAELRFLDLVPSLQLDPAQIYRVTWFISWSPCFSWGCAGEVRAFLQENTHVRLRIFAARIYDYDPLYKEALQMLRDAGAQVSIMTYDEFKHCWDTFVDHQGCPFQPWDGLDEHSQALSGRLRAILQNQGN", "experiment": "A3A deaminase inhibition for selectivity – biochemical, dose response (AID 504722)", "type": "functional"}, "[11]": {"biological_target": "DNA dC->dU-editing enzyme APOBEC-3G (Homo sapiens, UniProt Q9HC16)", "sequence (Q9HC16 whole entry)": "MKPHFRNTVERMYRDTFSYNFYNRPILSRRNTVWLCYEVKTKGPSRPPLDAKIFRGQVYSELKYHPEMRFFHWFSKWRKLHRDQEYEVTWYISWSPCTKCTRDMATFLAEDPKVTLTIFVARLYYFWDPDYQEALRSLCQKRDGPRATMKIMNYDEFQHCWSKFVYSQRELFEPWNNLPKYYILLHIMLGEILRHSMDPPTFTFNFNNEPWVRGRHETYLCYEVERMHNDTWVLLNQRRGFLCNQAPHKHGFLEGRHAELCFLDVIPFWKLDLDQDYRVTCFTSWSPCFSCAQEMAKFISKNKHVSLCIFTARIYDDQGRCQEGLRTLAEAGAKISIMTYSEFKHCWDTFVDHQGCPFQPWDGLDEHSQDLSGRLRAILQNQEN", "experiment": "Dose Response confirmation of small molecule APOBEC3G DNA Deaminase Inhibitors via a fluorescence-based single-stranded DNA deaminase assay. [Related pubchem assays (depositor defined):AID493012, AID493028]", "type": "functional"}, "[12]": {"biological_target": "NACHT, LRR and PYD domains-containing protein 3 (Homo sapiens, UniProt Q96P20)", "sequence (Q96P20 whole entry, the tested form may be a part)": "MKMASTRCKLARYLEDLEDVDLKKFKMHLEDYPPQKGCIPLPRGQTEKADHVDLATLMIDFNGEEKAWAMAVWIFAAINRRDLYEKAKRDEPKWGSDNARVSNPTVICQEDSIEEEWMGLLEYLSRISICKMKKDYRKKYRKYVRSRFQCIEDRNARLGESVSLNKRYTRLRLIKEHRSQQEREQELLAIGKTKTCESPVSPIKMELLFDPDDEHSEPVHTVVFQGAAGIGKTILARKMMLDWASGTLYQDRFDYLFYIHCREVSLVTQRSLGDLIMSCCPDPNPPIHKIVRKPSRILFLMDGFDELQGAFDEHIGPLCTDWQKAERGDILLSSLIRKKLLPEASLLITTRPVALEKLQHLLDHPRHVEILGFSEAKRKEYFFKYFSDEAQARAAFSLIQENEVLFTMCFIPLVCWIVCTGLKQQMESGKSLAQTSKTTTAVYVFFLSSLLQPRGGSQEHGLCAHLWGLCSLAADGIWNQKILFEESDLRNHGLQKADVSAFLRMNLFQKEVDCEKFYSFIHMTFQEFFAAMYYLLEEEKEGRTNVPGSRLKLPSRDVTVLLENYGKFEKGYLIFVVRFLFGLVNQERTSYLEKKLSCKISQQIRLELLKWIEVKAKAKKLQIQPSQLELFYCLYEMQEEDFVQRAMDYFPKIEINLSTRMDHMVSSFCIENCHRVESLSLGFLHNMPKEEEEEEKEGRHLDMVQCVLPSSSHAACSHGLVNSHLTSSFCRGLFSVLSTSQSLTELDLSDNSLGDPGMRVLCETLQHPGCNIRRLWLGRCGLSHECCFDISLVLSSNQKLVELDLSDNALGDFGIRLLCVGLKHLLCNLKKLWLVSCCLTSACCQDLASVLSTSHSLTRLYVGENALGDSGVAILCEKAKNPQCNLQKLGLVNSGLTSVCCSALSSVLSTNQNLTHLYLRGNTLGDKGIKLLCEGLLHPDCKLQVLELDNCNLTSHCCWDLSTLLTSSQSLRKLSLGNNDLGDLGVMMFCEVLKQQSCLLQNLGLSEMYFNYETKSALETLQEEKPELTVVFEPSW", "experiment": "NALP3 inhibitors in yeast, dose response, luminescent (AID 488799)", "type": "functional"}},
  "note": "Active and inactive are the calls of the source.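 Wherever AC50 is given: cells exposed to compound for roughly 70 hours or longer before luminescence read.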",
  "data": [
    {"smiles": "c1ccc(CN2CCC(Nc3nc(-c4ccccc4)nc4ccccc34)CC2)cc1", "values": [
      {"measurement": "EC50", "setting": "[1]", "result": "19.6 µM (active)"},
      {"measurement": "EC50", "setting": "[2]", "result": "12.3 µM (active)"},
      {"measurement": "AC50", "setting": "[3]", "result": "5.72 µM (active)"},
      {"measurement": "EC50", "setting": "[4]", "result": "9.69 µM (active)"},
      {"measurement": "CC50", "setting": "[5]", "result": "20.3 µM (active)"}
    ]},
    {"smiles": "O=C1C=CC(=O)C(C2=C3C(=O)N(CCc4ccccc4)CC(=O)N3CCC2)=C1", "values": [
      {"measurement": "IC50", "setting": "Perilipin-1/ABHD5", "result": "4.37 µM (active)"},
      {"measurement": "IC50", "setting": "Hexokinase HKDC1", "result": "3.73 µM (active)"},
      {"measurement": "EC50", "setting": "[6]", "result": "14.9 µM (inconclusive)"},
      {"measurement": "EC50", "setting": "[7]", "result": "45.9 µM (active)"},
      {"measurement": "IC50", "setting": "Beta-galactosidase", "result": "> 66.6 µM (inactive)"},
      {"measurement": "IC50", "setting": "[8]", "result": "5.72 µM (active)"},
      {"measurement": "IC50", "setting": "[9]", "result": "4.75 µM (not active)"},
      {"measurement": "IC50", "setting": "[10]", "result": "> 100 µM (inactive)"},
      {"measurement": "IC50", "setting": "[11]", "result": "8.15 µM (active)"}
    ]},
    {"smiles": "c1ccc(C2Nc3ccccc3C3OCCCC23)cc1", "note": "(stereo not given)", "values": [
      {"measurement": "IC50", "setting": "[12]", "result": "7.36 µM (active)"}
    ]}
  ]
}
